Experimental data: US6737383B1, “Herbicidal oxadiazolidines” (priority 1999, dated 2004)

Legend:
smallflower flatsedge = test: Test B flood test smallflower flatsedge; assay type: in vivo, Cyperus difformis
Outline: (§1)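 Flood test on plants grown to the 2-leaf stage; treated plants kept in greenhouse twelve to sixteen days, then visually rated against controls on a 0 (no effect) to 10 (complete control) scale.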

wheat = test: Test B pre/postemergence wheat; assay type: in vivo, Triticum aestivum; conditions: for Plant response rating, Wheat: Rate 250 g/ha
Outline: (§2)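 Test chemicals in a non-phytotoxic solvent mixture with surfactant were sprayed preemergence onto planted seeds and postemergence onto plants 2 to 18 cm tall (1- to 4-leaf stage). After twelve to sixteen days in a greenhouse, injury was visually rated against untreated controls from 0 (no effect) to 10 (complete control).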

wild oat = test: Test B pre/postemergence wild oat; assay type: in vivo, Avena fatua; conditions: for Plant response rating, Wild oats: Rate 250 g/ha
Outline: as §2

crabgrass = test: Test B pre/postemergence crabgrass; assay type: in vivo, Digitaria sanguinalis
Outline: as §2

duck salad = test: Test B flood test duck salad; assay type: in vivo, Heteranthera limosa
Outline: as §1

bedstraw = test: Test B pre/postemergence bedstraw; assay type: in vivo, Galium aparine
Outline: as §2

morningglory = test: Test B pre/postemergence morningglory; assay type: in vivo, Ipomoea hederacea
Outline: as §2

giant foxtail = test: Test B pre/postemergence giant foxtail; assay type: in vivo, Setaria faberii
Outline: as §2

soybean = test: Test B pre/postemergence soybean; assay type: in vivo, Glycine max
Outline: as §2

blackgrass = test: Test B pre/postemergence blackgrass; assay type: in vivo, Alopecurus myosuroides
Outline: as §2

purple nutsedge = test: Test B pre/postemergence purple nutsedge; assay type: in vivo, Cyperus rotundus
Outline: as §2

corn = test: Test B pre/postemergence corn; assay type: in vivo, Zea mays
Outline: as §2

bamyardgrass = test: Test B flood test barnyardgrass; assay type: in vivo, Echinochloa crus-galli
Outline: as §1

surinam grass = test: Test B pre/postemergence surinam grass; assay type: in vivo, Brachiaria decumbens
Outline: as §2

rice = test: Test B flood test rice; assay type: in vivo, Oryza sativa
Outline: as §1

cocklebur = test: Test B pre/postemergence cocklebur; assay type: in vivo, Xanthium strumarium
Outline: as §2

velvetleaf = test: Test B pre/postemergence velvetleaf; assay type: in vivo, Abutilon theophrasti; conditions: for Plant response rating, Velvetleaf: Rate 250 g/ha
Outline: as §2

[1] = Rate 250 g/ha, headed Pre-emergence (flood test species), scale 0 to 10 (0 no effect, 10 complete control)
[2] = Rate 500 g/ha, headed Pre-emergence (flood test species), scale 0 to 10 (0 no effect, 10 complete control)
[3] = Rate 2000 g/ha, Pre-emergence (as headed), scale 0 to 10
[4] = Postemergence, Rate 125 g/ha, scale of 0 to 10 where 0 is no effect and 10 is complete control
[5] = Preemergence, Rate 62 g/ha, scale 0 to 10 (0 no effect, 10 complete control)
[6] = Preemergence, Rate 125 g/ha, 0 is no effect, 10 is complete control
[7] = Preemergence, scale of 0 to 10 where 0 is no effect and 10 is complete control
[8] = Preemergence, Rate 500 g/ha, scale 0 to 10 (0 no effect, 10 complete control)
[9] = Rate 62 g/ha, Postemergence, scale of 0 to 10 where 0 is no effect and 10 is complete control
[10] = Postemergence, scale 0 to 10, 0 is no effect, 10 is complete control
[11] = Rate 500 g/ha, Postemergence, scale 0 to 10, 0 no effect, 10 complete control
[12] = Postemergence, Rate 250 g/ha, scale 0 to 10, 0 no effect, 10 complete control
[13] = Preemergence, Rate 250 g/ha, scale of 0 to 10 where 0 is no effect and 10 is complete control
[14] = Rate 1000 g/ha, Pre-emergence (as headed), scale 0 to 10
[15] = Postemergence, Rate 62 g/ha, scale 0 to 10, 0 is no effect, 10 is complete control
[16] = Preemergence, Rate 125 g/ha, scale 0 to 10 (0 no effect, 10 complete control)
[17] = Rate 125 g/ha, Postemergence, scale 0 to 10, 0 no effect, 10 complete control

CCCn1c(=O)on(C(=O)N(c2ccc(Cl)cc2)C(C)C)c1=O [Compound 119]
S. Flatsedge plant response rating (smallflower flatsedge; Pre-emergence, Rate 1000 g/ha, scale 0 to 10 (0 no effect, 10 complete control)): 0
S. Flatsedge plant response rating (smallflower flatsedge; [1]): 0
Plant response rating, S. Flatsedge (smallflower flatsedge; [2]): 0
S. Flatsedge plant response rating (smallflower flatsedge; [3]): 0
Wheat plant response rating (wheat; [4]): 0
Wheat plant response rating (wheat; [5]): 0
Wheat plant response rating (0 to 10 scale) (wheat; [6]): 0
Plant response rating, Wheat (wheat; [7]): 3
Wheat plant response rating (wheat; [8]): 5
Wheat plant response rating (wheat; [9]): 0
Plant response rating, Wheat (wheat; [10]): 3
Wheat plant response rating (wheat; [11]): 3
Wild oats plant response rating (wild oat; [4]): 0
Wild oats plant response rating (wild oat; [5]): 5
Wild oats plant response rating (0 to 10 scale) (wild oat; [6]): 6
Plant response rating, Wild oats (wild oat; [7]): 6
Wild oats plant response rating (wild oat; [8]): 9
Wild oats plant response rating (wild oat; [9]): 0
Plant response rating, Wild oats (wild oat; [10]): 3
Wild oats plant response rating (wild oat; [11]): 6
Crabgrass plant response rating (crabgrass; [4]): 3
Crabgrass plant response rating (crabgrass; [12]): 8
Crabgrass plant response rating (crabgrass; [5]): 7
Plant response rating, Crabgrass (crabgrass; [13]): 8
Crabgrass plant response rating (crabgrass; [8]): 10
Crabgrass plant response rating (crabgrass; [9]): 2
Crabgrass plant response rating (crabgrass; [11]): 8
Ducksalad plant response rating (duck salad; [1]): 0
Plant response rating, Ducksalad (duck salad; [2]): 0
Ducksalad plant response rating (duck salad; [14]): 0
Ducksalad plant response rating (duck salad; [3]): 0
Bedstraw plant response rating (bedstraw; [15]): 0
Bedstraw plant response rating (bedstraw; [12]): 4
Plant response rating, Bedstraw (bedstraw; [16]): 0
Plant response rating, Bedstraw (bedstraw; [13]): 2
Bedstraw plant response rating (bedstraw; [8]): 8
Bedstraw plant response rating (bedstraw; [17]): 2
Bedstraw plant response rating (bedstraw; [11]): 8
Morningglory plant response rating (morningglory; [4]): 7
Morningglory plant response rating (morningglory; [12]): 7
Morningglory plant response rating (morningglory; [5]): 0
Plant response rating, Morningglory (morningglory; [16]): 2
Plant response rating, Morningglory (morningglory; [13]): 2
Morningglory plant response rating (morningglory; [8]): 5
Morningglory plant response rating (morningglory; [9]): 3
Morningglory plant response rating (morningglory; [11]): 8
Giant foxtail plant response rating (giant foxtail; [4]): 8
Giant foxtail plant response rating (giant foxtail; [12]): 8
Giant foxtail plant response rating (giant foxtail; [5]): 9
Plant response rating, Giant foxtail (giant foxtail; [16]): 10
Plant response rating, Giant foxtail (giant foxtail; [13]): 10
Giant foxtail plant response rating (giant foxtail; [8]): 10
Giant foxtail plant response rating (giant foxtail; [9]): 8
Giant foxtail plant response rating (giant foxtail; [11]): 8
Soybean plant response rating (soybean; [4]): 2
Soybean plant response rating (soybean; [5]): 0
Plant response rating, Soybean (soybean; [16]): 0
Plant response rating, Soybean (soybean; [13]): 0
Soybean plant response rating (soybean; [8]): 0
Soybean plant response rating (soybean; [9]): 1
Plant response rating, Soybean (soybean; Rate 250 g/ha, Postemergence, scale 0 to 10, 0 is no effect, 10 is complete control): 4
Soybean plant response rating (soybean; [11]): 6
Blackgrass plant response rating (blackgrass; [4]): 3
Blackgrass plant response rating (blackgrass; [12]): 7
Blackgrass plant response rating (blackgrass; [5]): 5
Plant response rating, Blackgrass (blackgrass; [16]): 8
Plant response rating, Blackgrass (blackgrass; [13]): 9
Blackgrass plant response rating (blackgrass; [8]): 9
Blackgrass plant response rating (blackgrass; [9]): 2
Blackgrass plant response rating (blackgrass; [11]): 8
Nutsedge plant response rating (purple nutsedge; [4]): 0
Nutsedge plant response rating (purple nutsedge; [12]): 0
Nutsedge plant response rating (purple nutsedge; [5]): 0
Plant response rating, Nutsedge (purple nutsedge; [16]): 0
Plant response rating, Nutsedge (purple nutsedge; [13]): 0
Nutsedge plant response rating (purple nutsedge; [8]): 6
Nutsedge plant response rating (purple nutsedge; [9]): 0
Nutsedge plant response rating (purple nutsedge; [11]): 0
Corn plant response rating (corn; [4]): 0
Corn plant response rating (corn; [12]): 0
Corn plant response rating (corn; [5]): 0
Plant response rating, Corn (corn; [16]): 0
Plant response rating, Corn (corn; [13]): 0
Corn plant response rating (corn; [8]): 2
Corn plant response rating (corn; [9]): 0
Corn plant response rating (corn; [11]): 0
Barnyardgrass plant response rating (bamyardgrass; [1]): 0
Plant response rating, Barnyardgrass (bamyardgrass; [2]): 0
Barnyardgrass plant response rating (bamyardgrass; [14]): 0
Barnyardgrass plant response rating (bamyardgrass; Rate 2000 g/ha, Pre-emergence (as headed), scale 0 to 10, 0 no effect, 10 complete control): 0
B. signalgrass plant response rating (surinam grass; [15]): 0
B. signalgrass plant response rating (surinam grass; [12]): 3
B. signalgrass plant response rating (surinam grass; [5]): 5
Plant response rating, B. signalgrass (surinam grass; [16]): 7
Plant response rating, B. signalgrass (surinam grass; [13]): 7
B. signalgrass plant response rating (surinam grass; [8]): 9
B. signalgrass plant response rating (surinam grass; [17]): 0
B. signalgrass plant response rating (surinam grass; Rate 500 g/ha, Postemergence, scale of 0 to 10 where 0 is no effect and 10 is complete control): 5
Plant response rating, Rice (rice; Rate 250 g/ha, Postemergence (flood test), scale 0 to 10, 0 is no effect, 10 is complete control): 0
Rice plant response rating (rice; [1]): 0
Plant response rating, Rice (rice; [2]): 0
Rice plant response rating (rice; Rate 500 g/ha, listed under Postemergence (flood test species), scale 0 to 10, 0 no effect, 10 complete control): 0
Rice plant response rating (rice; [14]): 0
Rice plant response rating (rice; [3]): 0
Cocklebur plant response rating (cocklebur; [4]): 0
Cocklebur plant response rating (cocklebur; [12]): 0
Cocklebur plant response rating (cocklebur; [5]): 0
Plant response rating, Cocklebur (cocklebur; [16]): 0
Plant response rating, Cocklebur (cocklebur; [13]): 0
Cocklebur plant response rating (cocklebur; [9]): 0
Cocklebur plant response rating (cocklebur; [11]): 0
Velvetleaf plant response rating (velvetleaf; [4]): 2
Velvetleaf plant response rating (velvetleaf; [5]): 0
Velvetleaf plant response rating (0 to 10 scale) (velvetleaf; [6]): 4
Plant response rating, Velvetleaf (velvetleaf; [7]): 5
Velvetleaf plant response rating (velvetleaf; [8]): 6
Velvetleaf plant response rating (velvetleaf; [9]): 0
Plant response rating, Velvetleaf (velvetleaf; [10]): 3
Velvetleaf plant response rating (velvetleaf; [11]): 3
